The values that follow come from patent publication US7414140B2 (Teva Pharmaceutical Industries Ltd., priority 2003, dated 2008).

This series is described as follows: Solubility of fluvastatin sodium in solvents. The series is classed as physicochemical. The following applies: in water at 100° C.; read-out: Concentration of solution obtainable (solubility). The text has this:
Fluvastatin sodium Form XLI can be prepared by precipitating fluvastatin sodium from a mixture of water and acetonitrile. Fluvastatin sodium should first be dissolved in water. The water may be heated in order to produce a more concentrated solution and maximized recovery of Form XLI. […] The addition is done at whatever elevated temperature was used to dissolve the starting material or at higher temperature. The addition is dropwise and will generally require adding a excess of acetonitrile over the amount of water that was used. For example, we used a little less than four volumes of acetonitrile. The resulting heterogeneous mixture is then allowed to cool. Before isolating the fluvastatin sodium Form XLI that precipitates. The recovery can be improved by adding an addition portion of acetonitrile after cooling.
Fluvastatin sodium Form L can be prepared by precipitation from a mixture of methanol and ethyl acetate. The fluvastatin sodium starting material, in any crystalline form or amorphous, should first be dissolved in the methanol. […] The starting material can be dissolved either at ambient or elevated temperature, e.g. the boiling point of methanol. Once dissolved, precipitation of Form L is induced by dropwise addition of ethyl acetate to the solution at elevated temperature. The amount of ethyl acetate used is preferably about three times the volume of methanol. […]

For `CC(C)n1c(/C=C/C(O)CC(O)CC(=O)O)c(-c2ccc(F)cc2)c2ccccc21` (stereo not drawn) [Fluvastatin sodium, [R*,S*-(E)]-(±)-7-[3-(4-fluorophenyl)-1-(1-methylethyl)-1H-indol-2-yl]-3,5-dihydroxy-6-heptenoic acid monosodium], the solubility is ≥ 375 mg/mL.
